Measured values from patent publication US9000044B2, “Substituted naphthylacetic acids” (Hoffmann-La Roche Inc., priority 2012, dated 2015).

Molecular target: human CRTH2 (Homo sapiens (Human), UniProt Q9Y5Y4)
Assay: Calcium Flux Assay Using Fluorometric Imaging Plate Reader (FLIPR)
Format: cell-based
Conditions: CHO-K1 cells with G-alpha 16 and human CRTH2; inhibition of DK-PGD2 ligand-induced Ca2+ flux
Experimental: Calcium Flux Assay Using Fluorometric Imaging Plate Reader (FLIPR)
Cell Culture Conditions: CHO-K1 cells previously transfected with G-alpha 16 were subsequently transfected with the human CRTH2 receptor and the neomycin resistance gene. Following selection in 800 μg/mL G418 (geneticin), individual clones were assayed for their receptor expression based on staining with an anti human CRTH2 IgG, followed by assaying for their response to 13,14-dihydro-15-keto Prostaglandin D2 (DK-PDG2) (ligand) in the Ca^2+ Flux assay. Positive clones were then cloned by limiting dilution cloning. The transfected cells were cultured in Ham's F-12 medium supplemented with 10% fetal bovine serum, 2 mM glutamine, 100 U/mL penicillin/100 μg/mL streptomycin, 200 μg/mL hygromycin B, and 800 μg/mL G418 (geneticin). Cells were harvested with trypsin-EDTA (trypsin-ethylenediaminetetraacetic acid) and counted using ViaCount® reagent (from Guava Technologies, Inc. which contains two DNA-binding dyes that enable the reagent user to distinguish between viable and non-viable cells). The cell suspension volume was adjusted to 2.5×10^5 cells/mL with complete growth media. Aliquots of 50 μL were dispensed into BD Falcon™ 384 well black/clear microplates (from BD Biosciences, a division of Becton, Dickinson and Company) and the microplates were placed in a 37° C. CO2 incubator overnight. The following day, the microplates were used in the assay.
Loading Buffer containing dye (from the FLIPR® Calcium 3 Assay Kit from Molecular Devices, a division of MDS Analytical Technologies and MDS Inc.) was prepared by dissolving the contents of one bottle into 200 mL Hank's Balanced Salt Solution containing 20 mM HEPES (4-(2-hydroxyethyl)-1-piperazineethanesulfonic acid) and 2.5 mM probenecid. Growth media was removed from the cell plates and 25 μL of Hank's Balanced Salt Solution (HBSS) containing 20 mM HEPES, 0.05% BSA and 2.5 mM probenecid was added to each well followed by 25 μL of diluted dye using a Multidrop dispenser. The plates were then incubated for 1 hour at 37° C.
During the incubation, test compound plates were prepared by adding 90 μL of HBSS/20 mM HEPES/0.005% BSA buffer to the 2 μL of serial diluted compounds. To prepare serial diluted compounds, 20 mM stocks of compounds were dissolved in 100% DMSO. The compound dilution plate was set up as follows: well #1 received 5 μL of compound plus 10 μL of DMSO. Wells 2-10 received 10 μL of DMSO. 5 μL was mixed and transferred from well #1 into well #2. 1:3 serial dilutions were continued out 10 steps. 2 μL of diluted compound was transferred into duplicate wells of a 384 well “assay plate” and then 90 μL of buffer was added.
After incubation, both the cell and “assay plate” plates were brought to the fluorometric imaging plate reader (FLIPR®) and 20 μL of the diluted compounds were transferred to the cell plates by the FLIPR®. Plates were then incubated for 1 hour at room temperature. […] During the assay, fluorescence readings were taken simultaneously from all 384 wells of the cell plate every 1.5 seconds. Five readings were taken to establish a stable baseline, then 20 μL of sample was rapidly (30 μL/sec) and simultaneously added to each well of the cell plate. The fluorescence was continuously monitored before, during and after sample addition for a total elapsed time of 100 seconds. Responses (increase in peak fluorescence) in each well following agonist addition were determined. The initial fluorescence reading from each well, prior to ligand stimulation, was used as a zero baseline value for the data from that well. The responses were expressed as % inhibition of the buffer control.

Sequence of human CRTH2 (Q9Y5Y4 whole entry): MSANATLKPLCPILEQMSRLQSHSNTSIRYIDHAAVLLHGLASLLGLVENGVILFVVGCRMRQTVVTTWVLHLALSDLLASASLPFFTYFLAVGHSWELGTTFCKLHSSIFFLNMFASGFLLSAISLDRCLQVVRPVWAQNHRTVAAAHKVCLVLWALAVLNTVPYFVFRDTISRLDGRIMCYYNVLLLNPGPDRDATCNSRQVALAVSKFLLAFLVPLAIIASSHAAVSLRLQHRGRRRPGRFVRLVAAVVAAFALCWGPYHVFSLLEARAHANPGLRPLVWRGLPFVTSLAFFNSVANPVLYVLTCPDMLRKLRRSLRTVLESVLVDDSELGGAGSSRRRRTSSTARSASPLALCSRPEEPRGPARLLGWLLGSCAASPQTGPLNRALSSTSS

Which IC50 does the source give for Cc1c(Cl)cccc1NS(=O)(=O)c1ccc(-c2c(C)c(CC(=O)O)cc3ccc(Cl)cc23)cc1 [Example 31, {6-Chloro-4-[4-(3-chloro-2-methyl-phenylsulfamoyl)-phenyl]-3-methyl-naphthalen-2-yl}-acetic acid] here?
Its IC50 is 6.7 nM.

Which IC50 does the source give for Cc1c(CC(=O)O)cc2ccc(Cl)cc2c1-c1ccc(S(=O)(=O)Nc2cccc(Cl)c2)cc1 [Example 32, {6-Chloro-4-[4-(3-chloro-phenylsulfamoyl)-phenyl]-3-methyl-naphthalen-2-yl}-acetic acid] here?
The IC50 was 4.7 nM.

Which IC50 does the source give for Cc1c(CC(=O)O)cc2ccc(Cl)cc2c1-c1ccc(S(=O)(=O)N2CCCCC2)cc1 [Example 34, {6-Chloro-3-methyl-4-[4-(piperidine-1-sulfonyl)-phenyl]-naphthalen-2-yl}-acetic acid] here?
Its IC50 is 0.9 nM.

Which IC50 does the source give for CCN(CC)S(=O)(=O)c1ccc(-c2c(C)c(CC(=O)O)cc3ccc(Cl)cc23)cc1 [Example 35, [6-Chloro-4-(4-diethylsulfamoyl-phenyl)-3-methyl-naphthalen-2-yl]-acetic acid] here?
The IC50 was 0.5 nM.

How did the IC50 turn out when Cc1c(CC(=O)O)cc2ccc(Cl)cc2c1-c1ccc(S(=O)(=O)NC2CCCCC2)cc1 [Example 36, [6-Chloro-4-(4-cyclohexylsulfamoyl-phenyl)-3-methyl-naphthalen-2-yl]-acetic acid] was run?
The IC50 was 6.1 nM.

Cc1c(CC(=O)O)cc2ccc(Cl)cc2c1-c1ccc(S(=O)(=O)NC(C)C)cc1 [Example 37, [6-Chloro-4-(4-isopropylsulfamoyl-phenyl)-3-methyl-naphthalen-2-yl]-acetic acid] was tested. Which IC50 did it give?
The IC50 was 1.5 nM.

With Cc1c(CC(=O)O)cc2ccc(Cl)cc2c1-c1ccc(S(=O)(=O)NCc2ccccc2)cc1 [Example 38, [4-(4-Benzylsulfamoyl-phenyl)-6-chloro-3-methyl-naphthalen-2-yl]-acetic acid] as the compound, how does the IC50 read?
The IC50 was 1.6 nM.

COc1ccc(CNS(=O)(=O)c2ccc(-c3c(C)c(CC(=O)O)cc4ccc(Cl)cc34)cc2)cc1 [Example 39, {6-Chloro-4-[4-(4-methoxy-benzylsulfamoyl)-phenyl]-3-methyl-naphthalen-2-yl}-acetic acid] was tested. Which IC50 did it give?
Its IC50 is 13.2 nM.

For COc1ccc(CN(C(C)C)S(=O)(=O)c2ccc(-c3c(C)c(CC(=O)O)cc4ccc(Cl)cc34)cc2)cc1 [Example 40, (6-Chloro-4-{4-[isopropyl-(4-methoxy-benzyl)-sulfamoyl]-phenyl}-3-methyl-naphthalen-2-yl)-acetic acid], which IC50 is on record?
The IC50 was 3.1 nM.

Which IC50 does the source give for Cc1ccc(NS(=O)(=O)c2ccc(-c3c(C)c(CC(=O)O)cc4ccc(F)cc34)cc2)cc1 [Example 42, [6-Fluoro-3-methyl-4-(4-p-tolylsulfamoyl-phenyl)-naphthalen-2-yl]-acetic acid] here?
Its IC50 is 0.9 nM.

Which IC50 does the source give for Cc1c(Cl)cccc1NS(=O)(=O)c1ccc(-c2c(C)c(CC(=O)O)cc3ccc(F)cc23)cc1 [Example 44, {4-[4-(3-Chloro-2-methyl-phenylsulfamoyl)-phenyl]-6-fluoro-3-methyl-naphthalen-2-yl}-acetic acid] here?
The IC50 was 0.9 nM.

Cc1c(CC(=O)O)cc2ccc(F)cc2c1-c1ccc(S(=O)(=O)Nc2cccc(Cl)c2)cc1 [Example 45, {4-[4-(3-Chloro-phenylsulfamoyl)-phenyl]-6-fluoro-3-methyl-naphthalen-2-yl}-acetic acid] was tested. Which IC50 did it give?
The IC50 was 1.5 nM.

For Cc1c(CC(=O)O)cc2ccc(F)cc2c1-c1ccc(S(=O)(=O)N2CCCC2)cc1 [Example 46, {6-Fluoro-3-methyl-4-[4-(pyrrolidine-1-sulfonyl)-phenyl]-naphthalen-2-yl}-acetic acid], which IC50 is on record?
The IC50 was 0.7 nM.

How did the IC50 turn out when Cc1c(CC(=O)O)cc2ccc(F)cc2c1-c1ccc(S(=O)(=O)N2CCCCC2)cc1 [Example 47, {6-Fluoro-3-methyl-4-[4-(piperidine-1-sulfonyl)-phenyl]-naphthalen-2-yl}-acetic acid] was run?
The IC50 was 4.1 nM.

For CCN(CC)S(=O)(=O)c1ccc(-c2c(C)c(CC(=O)O)cc3ccc(F)cc23)cc1 [Example 48, [4-(4-Diethylsulfamoyl-phenyl)-6-fluoro-3-methyl-naphthalen-2-yl]-acetic acid], which IC50 is on record?
The IC50 was 1.8 nM.

How did the IC50 turn out when Cc1c(CC(=O)O)cc2ccc(F)cc2c1-c1ccc(S(=O)(=O)NC2CCCCC2)cc1 [Example 49, [4-(4-Cyclohexylsulfamoyl-phenyl)-6-fluoro-3-methyl-naphthalen-2-yl]-acetic acid] was run?
The IC50 was 1.5 nM.

How did the IC50 turn out when Cc1c(CC(=O)O)cc2ccc(F)cc2c1-c1ccc(S(=O)(=O)NC(C)C)cc1 [Example 50, [6-Fluoro-4-(4-isopropylsulfamoyl-phenyl)-3-methyl-naphthalen-2-yl]-acetic acid] was run?
Its IC50 is 1.7 nM.

With Cc1c(CC(=O)O)cc2ccc(F)cc2c1-c1ccc(S(=O)(=O)NCc2ccccc2)cc1 [Example 51, [4-(4-Benzylsulfamoyl-phenyl)-6-fluoro-3-methyl-naphthalen-2-yl]-acetic acid] as the compound, how does the IC50 read?
The IC50 was 0.4 nM.

How did the IC50 turn out when COc1ccc(CNS(=O)(=O)c2ccc(-c3c(C)c(CC(=O)O)cc4ccc(F)cc34)cc2)cc1 [Example 52, {6-Fluoro-4-[4-(4-methoxy-benzylsulfamoyl)-phenyl]-3-methyl-naphthalen-2-yl}-acetic acid] was run?
The IC50 was 3.2 nM.

For COc1ccc(CN(C(C)C)S(=O)(=O)c2ccc(-c3c(C)c(CC(=O)O)cc4ccc(F)cc34)cc2)cc1 [Example 53, (6-Fluoro-4-{4-[isopropyl-(4-methoxy-benzyl)-sulfamoyl]-phenyl}-3-methyl-naphthalen-2-yl)-acetic acid], which IC50 is on record?
Its IC50 is 1.3 nM.

Cc1c(CC(=O)O)cc2ccc(Cl)cc2c1-c1ccc(S(=O)(=O)NCCO)cc1 [Example 56, {6-Chloro-4-[4-(2-hydroxy-ethylsulfamoyl)-phenyl]-3-methyl-naphthalen-2-yl}-acetic acid] was tested. Which IC50 did it give?
The IC50 was 5.6 nM.

Which IC50 does the source give for Cc1c(CC(=O)O)cc2ccc(F)cc2c1-c1ccc(S(=O)(=O)NCCO)cc1 [Example 57, {6-Fluoro-4-[4-(2-hydroxy-ethylsulfamoyl)-phenyl]-3-methyl-naphthalen-2-yl}-acetic acid] here?
Its IC50 is 6.1 nM.
